Data published in patent US20210171464A1 (OLON S.P.A., priority 2017, published 2021).

Key:
[1] = exposure to atmospheric humidity (stability, hygroscopicity); format: physicochemical
[2] = test system: dopamine receptors; settings: cited from earlier work

| Molecule | hygroscopicity [1] | stability when exposed to atmospheric humidity ([1]; exposed to atmospheric humidity) | affinity for dopamine receptors [2] |
| --- | --- | --- | --- |
| CC(C)COc1ccc(CNC(=O)N(Cc2ccc(F)cc2)C2CCN(C)CC2)cc1.CC(C)COc1ccc(CNC(=O)N(Cc2ccc(F)cc2)C2CCN(C)CC2)cc1.O=C(O)C(O)C(O)C(=O)O [N-(4-fluorobenzyl)-N-(1-methylpiperidin-4-yl)-N′-(4-(2-methylpropyloxy)-phenylmethyl)carbamide hemitartrate] | not hygroscopic | stable | – |
| N-(4-fluorobenzyl)-N-(1-methylpiperidin-4-yl)-N′ -(4-(2-methyl-propyloxy)phenylmethyl)carbamide hemitartrate [pimavanserin hemitartrate] | – | – | no affinity |
